Paper PMC5376326, “Inhibition of ANO1 by luteolin and its cytotoxicity in human prostate cancer PC-3 cells” (PLoS ONE, 2017)

Assays:
human ANO1 (abc) = target: T1, human ANO1 (abc) (Homo sapiens, UniProt Q5XXA6, DEL476-501); test: YFP fluorescence quenching assay (iodide influx) in FRT cells expressing human ANO1; type: cell-based; details: FRT cells expressing ANO1 and YFP; ATP activation; mean ± S.E., n = 3; read-out: IC50, ANO1 inhibition (YFP fluorescence quenching)
T1 sequence (Q5XXA6 with tags, fused parts or gaps isoform Q5XXA6-5 DEL539-564): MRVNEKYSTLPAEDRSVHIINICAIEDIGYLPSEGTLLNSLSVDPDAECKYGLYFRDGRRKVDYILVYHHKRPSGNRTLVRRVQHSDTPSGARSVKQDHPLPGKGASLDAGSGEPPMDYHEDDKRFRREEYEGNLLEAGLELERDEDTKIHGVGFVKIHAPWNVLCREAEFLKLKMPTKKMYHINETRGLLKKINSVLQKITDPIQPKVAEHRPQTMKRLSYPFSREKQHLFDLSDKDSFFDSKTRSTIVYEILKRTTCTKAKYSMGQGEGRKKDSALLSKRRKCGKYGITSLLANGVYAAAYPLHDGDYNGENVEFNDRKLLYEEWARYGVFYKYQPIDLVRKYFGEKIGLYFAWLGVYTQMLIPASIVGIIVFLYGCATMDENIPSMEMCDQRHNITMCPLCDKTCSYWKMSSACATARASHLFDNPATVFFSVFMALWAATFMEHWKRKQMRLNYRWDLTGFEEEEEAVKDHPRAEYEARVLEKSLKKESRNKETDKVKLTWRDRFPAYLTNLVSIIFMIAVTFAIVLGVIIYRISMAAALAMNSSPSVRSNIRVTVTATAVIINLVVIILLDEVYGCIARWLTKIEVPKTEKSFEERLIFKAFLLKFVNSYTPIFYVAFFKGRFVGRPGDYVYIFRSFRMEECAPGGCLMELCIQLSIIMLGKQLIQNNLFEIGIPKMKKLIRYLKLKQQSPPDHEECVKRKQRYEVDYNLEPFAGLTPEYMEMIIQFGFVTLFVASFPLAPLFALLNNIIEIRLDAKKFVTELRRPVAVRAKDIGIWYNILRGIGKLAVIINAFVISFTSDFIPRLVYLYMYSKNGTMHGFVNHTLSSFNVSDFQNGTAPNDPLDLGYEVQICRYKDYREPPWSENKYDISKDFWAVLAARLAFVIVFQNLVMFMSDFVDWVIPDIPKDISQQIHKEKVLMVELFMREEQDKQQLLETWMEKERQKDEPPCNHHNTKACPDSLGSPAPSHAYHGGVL
Description: Fisher rat thyroid (FRT) cells were stably transfected with human ANO1 (abc) or mouse ANO2 and the halide sensor YFP as described in previous study. FRT cells were cultured in Coon`s modified F12 medium with 10% FBS, 2 mM L-glutamine, 100 units/ml penicillin and 100 μg/ml streptomycin at 37°C and 5% CO2. PC-3 cells were grown in RPMI 1640 medium supplemented with 10% FBS, 100 units/ml penicillin and 100 μg/ml streptomycin at 37°C and 5% CO2. There were populations of PC-3 cells with high and low expression of ANO1. To separate high and low levels of ANO1 expressing PC-3 cells, cells were stably transfected with the halide sensor YFP-H148Q/I152L/F46L and then the cells were plated on 96 well plates at 1 cell per well. After two weeks of incubation, high and low levels of ANO1 expressing PC-3 cells were separated by YFP quenching assay. ANO1 was activated by 100 μM ATP.
ANO1 and YFP expressing FRT cells were plated in 96-well black-walled microplates (Corning Inc., Corning, NY) at a density of 20,000 cells per well. Assays were done using FLUOstar Omega microplate reader (BMG Labtech, Ortenberg, Germany) and MARS Data Analysis Software (BMG Labtech) as described in our previous study. Briefly, each well of 96-well plate was washed 3 times in PBS (200 μL/wash) and test compounds were added to each well at 25 μM final concentration. After 10 minutes incubation at 37°C, 96-well plates were transferred to the plate reader for fluorescence assay. Each well was assayed individually for ANO1-mediated I^- influx by monitoring YFP fluorescence continuously (400 ms per point) for 2 s (baseline), then 140 mM I^- solution containing 200 μM ATP was added at 2 s and then YFP fluorescence was recorded for 6 s. Initial iodide influx rate was determined from the initial slope of fluorescence decrease, by nonlinear regression, following infusion of iodide with ATP.

ANO1 = details: read-out: IC50, ANO1 inhibition; cited from earlier work

IC50 (human ANO1 (abc)) | Molecule | IC50 (ANO1)
15.79 ± 0.03 µM | O=c1cc(-c2ccc(O)cc2)oc2cc(O)cc(O)c12 [Apigenin] | 
15.15 ± 0.1 µM | O=c1cc(-c2ccccc2)oc2cc(O)cc(O)c12 [Chrysin] | 
9.66 ± 0.01 µM | O=c1c(O)c(-c2ccccc2)oc2cc(O)cc(O)c12 [Galangin] | 
 | COc1cc(Nc2ccc([N+](=O)[O-])cc2C(=O)O)cc2ccccc12 [MONNA] | ~1 µM
 | CCc1c(C)nc(SCC(=O)Nc2nc(-c3ccc(OC)cc3)cs2)[nH]c1=O [T16Ainh-A01] | ~1 µM
 | COC1=C(OC)C(=O)C(CCCCCCCCCCO)=C(C)C1=O [idebenone] | ~9 µM
 | tannic acid | ~6 µM

Molecule | IC50 (human ANO1 (abc)) | IC50 (ANO1)
O=c1cc(-c2ccccc2)oc2cc(O)c(O)c(O)c12 [Baicalein] | 49.6 ± 0.05 µM | 
